According to the supplement of paper PMC11061612:

What was measured:
Assay in all cases: combination Emax (second highest fraction inhibited in the dose matrix, 72 h); higher = more inhibition; extreme values may be limits of the assay
[1] = system: KMRC-1 (Kidney Carcinoma)
How it was run: (§1)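 After 24 hours at 37°C and 5% CO2 in 1536-well plates, cells in DMEM/F12 or RPMI plus 10% FBS received two-drug dose matrices for 72 hours. Viability came from CellTiter-Glo 2.0 luminescence and was scaled as inhibition, anchored at 0 by vehicle wells and at 1 by blank wells. Combination Emax is taken as the second-highest inhibition in the matrix, and Bliss excess as the observed combination effect less EA + EB − EA·EB, with EA and EB the single-agent effects.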

[2] = system: COLO-679 (Melanoma)
How it was run: as §1

[3] = system: KOPN-8 (B-Lymphoblastic Leukemia)
How it was run: as §1

[4] = system: NCI-H1993 (Lung Adenocarcinoma)
How it was run: as §1

[5] = system: SK-N-AS (Neuroblastoma)
How it was run: as §1

[6] = system: SNU-387 (Hepatocellular Carcinoma)
How it was run: as §1

[7] = system: NCI-H1838 (Lung Adenocarcinoma)
How it was run: as §1

[8] = system: A4-Fuk (B-Lymphoblastic Leukemia)
How it was run: as §1

[9] = system: HCC2998 (Colorectal Carcinoma)
How it was run: as §1

[10] = system: ALL-SIL (T-Lymphoblastic Leukemia)
How it was run: as §1

[11] = system: EJM (Plasma Cell Myeloma)
How it was run: as §1

[12] = system: LC-1-sq (Squamous Cell Lung Carcinoma)
How it was run: as §1

[13] = system: ML-2 (Acute Myeloid Leukemia)
How it was run: as §1

[14] = system: SKN (Other Solid Carcinomas)
How it was run: as §1

[15] = system: MOLT-4 (T-Lymphoblastic Leukemia)
How it was run: as §1

[16] = system: SW982 (Other Solid Carcinomas)
How it was run: as §1

[17] = system: SW872 (Other Solid Carcinomas)
How it was run: as §1

[18] = system: NCI-H1092 (Small Cell Lung Carcinoma)
How it was run: as §1

[19] = system: MDA-MB-453 (Breast Carcinoma)
How it was run: as §1

[20] = system: NCI-H1355 (Lung Adenocarcinoma)
How it was run: as §1

Row | SMILES | combination Emax [1] | combination Emax [2] | combination Emax [3] | combination Emax [4] | combination Emax [5] | combination Emax [6] | combination Emax [7] | combination Emax [8] | combination Emax [9] | combination Emax [10] | combination Emax [11] | combination Emax [12] | combination Emax [13] | combination Emax [14] | combination Emax [15] | combination Emax [16] | combination Emax [17] | combination Emax [18] | combination Emax [19] | combination Emax [20]
1 | Cn1cnc2c(F)c(Nc3ccc(Br)cc3Cl)c(C(=O)NOCCO)cc21 [Selumetinib] + CC(C)n1c(=O)n(C)c2cnc3cc(F)c(-c4ccc(OCCCN5CCCCC5)nc4)cc3c21 [AZD1390] (first compound max 10 µM, 7x7, partner max 0.3 µM) | 0.165 | 0.796 | 0.596 | 0.627 | 0.422 | 0.284 | 0.237 | 0.404 | 0.719 | 0.25 | 0.0932 | 0.184 | 0.78 | 0.113 | 0.348 | 0.266 | 0.203 | 0.0809 | 0.171 | 0.172
2 | Cc1c2c(nn1C)CSCc1cc(n(C)n1)CSc1cc(c3ccccc3c1)OCCCc1c(C(=O)O)n(C)c3c-2c(Cl)ccc13 [AZD5991] + CN(C)CCCOc1ccc(-c2ccc3ncc4c(c3c2)n(C2CCOCC2)c(=O)n4C)cn1 [AZD0156] (first compound max 1 µM, 7x7, partner max 1 µM) | 0.197 | 0.243 | 0.963 | 0.474 | 0.614 | 0.376 | 0.464 | 1 | 0.952 | 0.986 | 0.965 | 0.258 | 1 | 0.278 | 0.304 | 0.258 | 0.226 | 0.562 | 0.298 | 0.263
3 | COc1cccc(OCCCN)c1-c1cc(Nc2cnc(C#N)cn2)n[nH]1 [Prexasertib] + Cc1cc2ncnn2cc1Nc1ncc2c(n1)n(C1CCOCC1)c(=O)n2C [AZD7648] (first compound max 1 µM, 7x7, partner max 10 µM) | 0.539 | 0.902 | 0.966 | 0.777 | 0.984 | 0.552 | 0.54 | 0.89 | 0.954 | 0.983 | 0.941 | 0.944 | 1 | 0.425 | 1 | 0.774 | 0.867 | 0.707 | 0.908 | 0.714
4 | Cc1c2c(nn1C)CSCc1cc(n(C)n1)CSc1cc(c3ccccc3c1)OCCCc1c(C(=O)O)n(C)c3c-2c(Cl)ccc13 [AZD5991] + CC1(C)CCC(CN2CCN(c3ccc(C(=O)NS(=O)(=O)c4ccc(NCC5CCOCC5)c([N+](=O)[O-])c4)c(Oc4cnc5[nH]ccc5c4)c3)CC2)=C(c2ccc(Cl)cc2)C1 [Venetoclax] (first compound max 1 µM, 7x7, partner max 1 µM) | 0.289 | 0.388 | 0.936 | 0.325 | 0.871 | 0.454 | 0.306 | 1 | 0.893 | 1 | 0.959 | 0.322 | 1 | 0.177 | 0.857 | 0.192 | 0.312 | 0.989 | 0.346 | 0.188
5 | Cn1cnc2c(F)c(Nc3ccc(Br)cc3Cl)c(C(=O)NOCCO)cc21 [Selumetinib] + C=CCn1c(=O)c2cnc(Nc3ccc(N4CCN(C)CC4)cc3)nc2n1-c1cccc(C(C)(C)O)n1 [AZD1775] (first compound max 10 µM, partner max 1 µM) | 0.203 | 0.823 | 0.995 | 0.83 | 0.817 | 0.544 | 0.468 | 0.948 | 0.806 | 0.881 | 0.867 | 0.696 | 0.994 | 0.353 | 1 | 0.633 | 0.29 | 0.371 | 0.206 | 0.479
6 | CC1(C)CCC(CN2CCN(c3ccc(C(=O)NS(=O)(=O)c4ccc(NCC5CCOCC5)c([N+](=O)[O-])c4)c(Oc4cnc5[nH]ccc5c4)c3)CC2)=C(c2ccc(Cl)cc2)C1 [Venetoclax] + Cn1cnc2c(F)c(Nc3ccc(Br)cc3Cl)c(C(=O)NOCCO)cc21 [Selumetinib] (first compound max 1 µM, 7x7, partner max 3 µM) | 0.135 | 0.737 | 0.971 | 0.436 | 0.647 | 0.295 | 0.165 | 0.712 | 0.683 | 0.679 | 0.0906 | 0.236 | 1 | 0.136 | 0.451 | 0.242 | 0.105 | 0.253 | 0.15 | 0.273
7 | CC1(C)CCC(CN2CCN(c3ccc(C(=O)NS(=O)(=O)c4ccc(NCC5CCOCC5)c([N+](=O)[O-])c4)c(Oc4cnc5[nH]ccc5c4)c3)CC2)=C(c2ccc(Cl)cc2)C1 [Venetoclax] + CCN(CCO)CCCOc1ccc2c(Nc3cc(CC(=O)Nc4cccc(F)c4)[nH]n3)ncnc2c1 [AZD2811] (first compound max 1 µM, 7x7, partner max 1 µM) | 0.158 | 0.133 | 0.974 | 0.232 | 0.434 | 0.215 | 0.226 | 0.748 | 0.121 | 1 | 0.261 | 0.226 | 0.998 | 0.242 | 1 | 0.55 | 0.142 | 0.39 | 0.211 | 0.323
8 | COc1nnc2ccc(N3CCC(c4ccc(OCCN5CCN(C)C(=O)[C@H]5C)cc4)CC3)nn12 [AZD5153] + CC1(C)CCC(CN2CCN(c3ccc(C(=O)NS(=O)(=O)c4ccc(NCC5CCOCC5)c([N+](=O)[O-])c4)c(Oc4cnc5[nH]ccc5c4)c3)CC2)=C(c2ccc(Cl)cc2)C1 [Venetoclax] (first compound max 1 µM, 7x7, partner max 1 µM) | 0.263 | 0.442 | 1 | 0.444 | 0.415 | 0.434 | 0.35 | 0.871 | 0.685 | 0.956 | 0.543 | 0.603 | 1 | 0.594 | 0.425 | 0.767 | 0.561 | 0.478 | 0.649 | 0.327
9 | C=CCn1c(=O)c2cnc(Nc3ccc(N4CCN(C)CC4)cc3)nc2n1-c1cccc(C(C)(C)O)n1 [AZD1775] + O=C(c1cc(Cc2n[nH]c(=O)c3ccccc23)ccc1F)N1CCN(C(=O)C2CC2)CC1 [Olaparib] (first compound max 1 µM, partner max 10 µM) | 0.279 | 0.491 | 0.904 | 0.604 | 0.78 | 0.567 | 0.477 | 0.875 | 0.448 | 0.899 | 0.891 | 0.901 | 1 | 0.412 | 1 | 0.787 | 0.336 | 0.382 | 0.411 | 0.614
10 | COc1nnc2ccc(N3CCC(c4ccc(OCCN5CCN(C)C(=O)[C@H]5C)cc4)CC3)nn12 [AZD5153] + Cn1cnc2c(F)c(Nc3ccc(Br)cc3Cl)c(C(=O)NOCCO)cc21 [Selumetinib] (first compound max 1 µM, 7x7, partner max 10 µM) | 0.346 | 0.884 | 1 | 0.915 | 0.663 | 0.514 | 0.394 | 0.934 | 0.95 | 0.778 | 0.619 | 0.677 | 1 | 0.65 | 0.162 | 0.789 | 0.784 | 0.192 | 0.614 | 0.483
11 | CC1(C)CCC(CN2CCN(c3ccc(C(=O)NS(=O)(=O)c4ccc(NCC5CCOCC5)c([N+](=O)[O-])c4)c(Oc4cnc5[nH]ccc5c4)c3)CC2)=C(c2ccc(Cl)cc2)C1 [Venetoclax] + COc1cc(Nc2ncc3c(n2)-c2ccc(Cl)cc2C(c2c(F)cccc2OC)=NC3)ccc1C(=O)O [Alisertib] (first compound max 1 µM, 7x7, partner max 10 µM) | 0.384 | 0.282 | 1 | 0.308 | 0.818 | 0.191 | 0.437 | 0.822 | 0.225 | 1 | 0.146 | 0.275 | 0.988 | 0.577 | 0.959 | 0.606 | 0.265 | 0.684 | 0.314 | 0.473
12 | NC1(C(=O)N[C@@H](CCO)c2ccc(Cl)cc2)CCN(c2ncnc3[nH]ccc23)CC1 [Capivasertib] + C[C@@H]1COCCN1C2=NC(=NC(=C2)C3(CC3)[S@](=N)(=O)C)C4=C5C=CNC5=NC=C4 [AZD6738] (first compound max 10 µM, 7x7, partner max 10 µM) | 0.579 | 0.634 | 0.986 | 0.742 | 0.738 | 0.613 | 0.494 | 0.942 | 0.814 | 0.932 | 0.908 | 0.74 | 0.928 | 0.608 | 1 | 0.727 | 0.452 | 0.387 | 0.706 | 0.773
